Measurements reported in the supplement of paper PMC11061612.

What was measured:
Test in all cases: combination Emax (second highest fraction inhibited in the dose matrix, 72 h); higher = more inhibition; extreme values may be limits of the assay
CAL-78 (Chondrosarcoma) = tested on: CAL-78 (Chondrosarcoma)
Summary of the method: (§1)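 Bliss excess equals the observed combination effect minus the expected value EA + EB − EA·EB, where EA and EB are the effects of each agent alone. Combination Emax is the second-highest inhibition within the matrix. Inhibition was scaled from CellTiter-Glo 2.0 luminescence, with 0 set by vehicle wells and 1 by blank wells, after 72 hours of two-drug dosing of cells plated in 1536-well plates.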

ES7 (Ewing's Sarcoma) = tested on: ES7 (Ewing's Sarcoma)
Summary of the method: as §1

[1] = tested on: EM-2 (Chronic Myelogenous Leukemia)
Summary of the method: as §1

[2] = tested on: COR-L23 (Non-Small Cell Lung Carcinoma)
Summary of the method: as §1

[3] = tested on: KARPAS-620 (Plasma Cell Myeloma)
Summary of the method: as §1

[4] = tested on: HT-29 (Colorectal Carcinoma)
Summary of the method: as §1

[5] = tested on: DB (B-Cell Non-Hodgkin's Lymphoma)
Summary of the method: as §1

DSH1 (Bladder Carcinoma) = tested on: DSH1 (Bladder Carcinoma)
Summary of the method: as §1

[6] = tested on: MDA-MB-231 (Breast Carcinoma)
Summary of the method: as §1

[7] = tested on: SNU-C5 (Colorectal Carcinoma)
Summary of the method: as §1

J82 (Bladder Carcinoma) = tested on: J82 (Bladder Carcinoma)
Summary of the method: as §1

[8] = tested on: SUIT-2 (Pancreatic Carcinoma)
Summary of the method: as §1

[9] = tested on: U-266 (Plasma Cell Myeloma)
Summary of the method: as §1

[10] = tested on: LU-99A (Non-Small Cell Lung Carcinoma)
Summary of the method: as §1

[11] = tested on: HCC2157 (Breast Carcinoma)
Summary of the method: as §1

[12] = tested on: CFPAC-1 (Pancreatic Carcinoma)
Summary of the method: as §1

NCI-H2369 (Mesothelioma) = tested on: NCI-H2369 (Mesothelioma)
Summary of the method: as §1

[13] = tested on: CTV-1 (T-Lymphoblastic Leukemia)
Summary of the method: as §1

[14] = tested on: KM-H2 (Hodgkin's Lymphoma)
Summary of the method: as §1

RH-1 (Ewing's Sarcoma) = tested on: RH-1 (Ewing's Sarcoma)
Summary of the method: as §1

Row | combination Emax [14] | Compound | combination Emax (CAL-78 (Chondrosarcoma)) | combination Emax (ES7 (Ewing's Sarcoma)) | combination Emax [1] | combination Emax [2] | combination Emax [3] | combination Emax [4] | combination Emax [5] | combination Emax (DSH1 (Bladder Carcinoma)) | combination Emax [6] | combination Emax [7] | combination Emax (J82 (Bladder Carcinoma)) | combination Emax [8] | combination Emax [9] | combination Emax [10] | combination Emax [11] | combination Emax [12] | combination Emax (NCI-H2369 (Mesothelioma)) | combination Emax [13] | combination Emax (RH-1 (Ewing's Sarcoma))
1 | 0.821 | CN(C)CCCOc1ccc(-c2ccc3ncc4c(c3c2)n(C2CCOCC2)c(=O)n4C)cn1 [AZD0156] + C[C@@H]1COCCN1C2=NC(=NC(=C2)C3(CC3)[S@](=N)(=O)C)C4=C5C=CNC5=NC=C4 [AZD6738] (first compound max 1 µM, 7x7, partner max 10 µM) | 0.41 | 0.846 | 0.949 | 0.687 | 0.644 | 0.823 | 0.628 | 0.823 | 0.736 | 0.807 | 0.396 | 0.71 | 0.523 | 0.784 | 0.955 | 0.434 | 0.187 | 0.829 | 0.938
2 | 0.961 | C=CCn1c(=O)c2cnc(Nc3ccc(N4CCN(C)CC4)cc3)nc2n1-c1cccc(C(C)(C)O)n1 [AZD1775] + C[C@@H]1COCCN1C2=NC(=NC(=C2)C3(CC3)[S@](=N)(=O)C)C4=C5C=CNC5=NC=C4 [AZD6738] (first compound max 1 µM, partner max 10 µM) | 0.839 | 0.903 | 0.977 | 0.595 | 0.753 | 0.858 | 0.934 | 0.862 | 0.84 | 0.794 | 0.414 | 0.728 | 0.707 | 0.694 | 0.983 | 0.536 | 0.336 | 0.993 | 1

The remaining lines, values behind:

Row | Compound | combination Emax [14] | combination Emax (CAL-78 (Chondrosarcoma)) | combination Emax (ES7 (Ewing's Sarcoma)) | combination Emax [1] | combination Emax [2] | combination Emax [3] | combination Emax [4] | combination Emax [5] | combination Emax (DSH1 (Bladder Carcinoma)) | combination Emax [6] | combination Emax [7] | combination Emax (J82 (Bladder Carcinoma)) | combination Emax [8] | combination Emax [9] | combination Emax [10] | combination Emax [11] | combination Emax [12] | combination Emax (NCI-H2369 (Mesothelioma)) | combination Emax [13] | combination Emax (RH-1 (Ewing's Sarcoma))
3 | CN(C)CCCOc1ccc(-c2ccc3ncc4c(c3c2)n(C2CCOCC2)c(=O)n4C)cn1 [AZD0156] + C=CCn1c(=O)c2cnc(Nc3ccc(N4CCN(C)CC4)cc3)nc2n1-c1cccc(C(C)(C)O)n1 [AZD1775] (first compound max 1 µM, partner max 1 µM) | 0.953 | 0.428 | 0.542 | 0.902 | 0.298 | 0.511 | 0.83 | 0.891 | 0.421 | 0.374 | 0.583 | 0.333 | 0.619 | 0.737 | 0.677 | 0.832 | 0.473 | 0.207 | 0.962 | 1
4 | CN(C)CCCOc1ccc(-c2ccc3ncc4c(c3c2)n(C2CCOCC2)c(=O)n4C)cn1 [AZD0156] + CCN(CCO)CCCOc1ccc2c(Nc3cc(CC(=O)Nc4cccc(F)c4)[nH]n3)ncnc2c1 [AZD2811] (first compound max 1 µM, 7x7, partner max 1 µM) | 0.327 | 0.193 | 0.799 | 0.852 | 0.116 | 0.693 | 0.166 | 0.559 | 0.211 | 0.206 | 0.224 | 0.283 | 0.13 | 0.299 | 0.473 | 0.824 | 0.0885 | 0.0791 | 0.234 | 0.956
5 | CN(C)CCCOc1ccc(-c2ccc3ncc4c(c3c2)n(C2CCOCC2)c(=O)n4C)cn1 [AZD0156] + O=C(c1cc(Cc2n[nH]c(=O)c3ccccc23)ccc1F)N1CCN(C(=O)C2CC2)CC1 [Olaparib] (first compound max 3 µM, partner max 3 µM) | 0.401 | 0.272 | 0.853 | 0.306 | 0.39 | 0.612 | 0.407 | 0.476 | 0.387 | 0.405 | 0.325 | 0.128 | 0.195 | 0.171 | 0.408 | 0.38 | 0.434 | 0.181 | 0.303 | 0.649
6 | C=CCn1c(=O)c2cnc(Nc3ccc(N4CCN(C)CC4)cc3)nc2n1-c1cccc(C(C)(C)O)n1 [AZD1775] + O=C(c1cc(Cc2n[nH]c(=O)c3ccccc23)ccc1F)N1CCN(C(=O)C2CC2)CC1 [Olaparib] (first compound max 1 µM, partner max 10 µM) | 0.961 | 0.446 |  | 0.938 | 0.224 | 0.489 | 0.818 | 0.912 | 0.369 | 0.582 | 0.567 | 0.195 | 0.607 | 0.763 | 0.546 | 0.892 | 0.476 | 0.258 | 0.977 | 1
